Assay results taken from the NIST ThermoML archive (doi:10.1021/je9004068).
Numbers after ± are expanded uncertainties.

Columns and labels:
[1] = for mass density: 298.15 K, 101.33 kPa; for mass density / vapor or sublimation pressure: Liquid; for surface tension liquid-gas: 303.15 K, Maximal bubble pressure
[2] = refractive index (Na D-line) (dimensionless); details: 298.15 K; 101.33 kPa; Liquid; Standard Abbe refractometry
[3] = xn = mol fraction of the nth substance listed; details: 303.15 K, Maximal bubble pressure

COC(C)(C)C [2-methoxy-2-methylpropane]
Details | mass density [kg/m3] | refractive index | surface tension liquid-gas [mN/m]
[1] | 735.45 ± 0.36 | – | 18.7 ± 0.25
[2] | – | 1.36766 ± 0.00031 | –

[1]
Details | vapor or sublimation pressure [kPa]
308.3 K | 50 ± 0.12
319.39 K | 75 ± 0.13
325.98 K | 94 ± 0.15

COC(C)(C)C [2-methoxy-2-methylpropane] + CCO
[3]
Details | surface tension liquid-gas [mN/m]
x2 = 0.102 | 18.39 ± 0.25
x2 = 0.212 | 18.38 ± 0.25
x2 = 0.31 | 18.54 ± 0.25
x2 = 0.408 | 18.84 ± 0.25
x2 = 0.527 | 19 ± 0.25
x2 = 0.623 | 19.21 ± 0.25
x2 = 0.721 | 19.56 ± 0.25
x2 = 0.826 | 20.03 ± 0.25

CCO [ethanol]
Details | mass density [kg/m3] | refractive index | surface tension liquid-gas [mN/m]
[1] | 785.05 ± 0.31 | – | 21.7 ± 0.26
[2] | – | 1.36068 ± 0.00031 | –

[1]
Details | vapor or sublimation pressure [kPa]
310.89 K | 16.01 ± 0.08
318.88 K | 24.01 ± 0.08
323.51 K | 30.01 ± 0.09
328.54 K | 38.01 ± 0.1
332.24 K | 45.01 ± 0.11
334.57 K | 50 ± 0.11
335.05 K | 51.01 ± 0.11
338.38 K | 59.01 ± 0.13
341.01 K | 66.01 ± 0.14
343.4 K | 73.01 ± 0.14
344.02 K | 75 ± 0.15
345.61 K | 80.01 ± 0.15
347.66 K | 87.01 ± 0.16
349.56 K | 94 ± 0.17
349.58 K | 94.01 ± 0.17
351.65 K | 102.07 ± 0.18
